Measurements: patent publication US6525200B1, “Multicyclic aromatic compounds and uses thereof” (Roche Diagnostics Corporation, priority 2000, dated 2003)
pKd: −log10 of the molar value. Structures can show the parent of a compound that is named as a salt. Where two headings read alike, the source gives them in different places. One block for each molecule: values may come before it.

Columns and labels:
[1] = UV-visible titration of receptor with N-methylguanidine hydrochloride in distilled water; assay type: binding
Protocol: (§1) UV-visible absorbance and fluorescence were examined. UV spectra were recorded on a Hewlett-Packard 8452A diode array UV-vis spectrophotometer, using a cell of 1 cm pathlength. Fluorescence spectra were recorded on a Photon Technology International QM-1 Steady state Fluorescence system. For UV-visible titrations stability constants (Ks) were calculated by fitting the data to the equation: Aobs=(εR[R]t+[R]t(εRG−εR)(Ks[G]t+Ks[R]t+1−sqrt((Ks[G]t+Ks[R]t+1)^2−4*[R]t Ks^2[G]t))/(2Ks[R]t))1 derived from Ks=[G][R]/[RG], [R]t=[R]+[RG], [G]t=[G]+[RG], and Aobs=(εR[R]+εRG[RG])1. The experimentally determined parameters are as follows: [R]t, the total concentration of a receptor; [G]t, the total concentration of a guest; Aobs, the observed absorbance; εR, the extinction coefficient of free receptor; 1, cell pathlength. The fitted parameters: εRG, the extinction coefficient of a receptor complex with a guest, Ks, the stability constant. For fluorescense titrations stability constants (Ks) were calculated by fitting as the data to the equation: Iobs=IR+(IRG−IR)(Ks[G]t+Ks[R]t+1−sqrt((Ks[G]t+Ks[R]t+1)^2−4*[R]tKs^2[G]t))/(2Ks[R]t) derived from Ks=[G][R]/[RG], [R]t=[R]+[RG], [G]t=[G]+[RG], and Iobs=IR+IRG. The experimentally determined parameters are as follows: [R]t, the total concentration of a receptor; [G]t, the total concentration of a guest; Iobs, the observed fluorescence intensity; IR, the fluorescence intensity of free receptor at a given concentration. The fitted parameters: IRG, the fluorescence intensity of a receptor complex with aguest at a given concentration, Ks, the stability constant. The calculations were performed using software Sigma Plot 1.02 (Jandel Scientific) with tolerance value 0.000100. The goodness of fit was evaluated by means of the Student's Paired t-Test (P-value>0.05).
UV-visible titrations was performed by first preparaing a 30 μM receptor 5 (compound IA) stock solution in distilled water. […]
The following parameters were found from absorbance data measured at 410 nm: εR=6.50×10^3 cm^−1 M^−1, εRG=2.43×10^4 cm^−1 M^−1, Ks=1.0×10^5 M^−1.

[2] = Fluorescence quenching of receptor on addition of N-methylguanidinium; assay type: binding; settings: 30 μM receptor in distilled water, excitation 388 nm, 2 equivalents of guest
Protocol: as §1, with “The fitted parameters: εRG, the extinction coefficient of a receptor complex with a guest, Ks, the stability constant.” left out, “The fitted parameters: IRG, the fluorescence intensity of a receptor complex with aguest at a given concentration, Ks, the stability constant. The calculations were performed using software Sigma Plot 1.02 (Jandel Scientific) with tolerance value 0.000100. The goodness of fit was evaluated by means of the Student's Paired t-Test (P-value>0.05).” left out

[3] = Fluorescence complexation studies of receptors with urea; assay type: binding
Protocol: as §1
A fluorescence titration study was performed as follows: a stock solution of the receptor (compound IB) was prepared with distilled water. Using the equipment described in Example 6, an excitation wavelength of 384 nm was used to obtain the spectrum for the uncomplexed receptor. Thereafter, four (4) aliquots of a urea stock solution were added with fluorescence being measured after each addition. A composite spectrum is show in FIG. 8.
Fluorescence was measured for the stock receptor solution using an excitation wavelength of 384 nm with a peak emission being observed at 450 nm. The stock urea solution was then added and fluorescence was measured again. A composite spectrum is shown in FIG. 10, with curve (a) representing the receptor without urea and curve (b) representing the complexation of the receptor with urea.
Fluorescence was also measured using a 25 μM stock solution of the receptor in distilled water. […] A urea solution was prepared and added to the receptor solution to measure quenching due to complexation.
Fluorescence was measured for a 20 μM stock solution of compound ID in a 98:2 (v/v) DMSO:water solvent system. An excitation wavelength of 407 nm was used with a peak emission being observed at 450 nm. A 0.17 M urea solution was then added and fluorescence measured again. A composite spectrum is shown in FIG. 11, with curve (a) representing the receptor (i.e., compound ID) without urea and curve (b) representing the complexation of the receptor with urea. […]
Fluorescence was measured for a 20 μM stock solution of compound IE in a 1:1 (v/v) DMSO:CHCl3 solvent system. […] Twenty equivalents of urea were then added and fluorescence measured again. […]

[4] = water or aqueous medium; cited from earlier work
[5] = in water; read-out: dissociation constant of the complex with methylguanidinium ion; cited from earlier work
[6] = in water, fluorescence quenching, read-out: Kd with urea

- stability constant Ks of complex with N-methylguanidinium ([1]; 30 μM receptor in distilled water, absorbance at 410 nm): 100000 M⁻¹
- binds N-methylguanidinium more strongly than the arginine cork ([1]; in water): 430 times
- pKd ([1]; in water, correlated from Ks, read-out: Kd of complex with N-methylguanidinium): 5.00
- emission band at 410 nm, remaining share of original fluorescence intensity [2]: approximately 24%
SMILES: O=C(O)c1ccc2c(n1)-c1nc3nc4c(cc3cc1CC2)CCc1cc2c(nc1-4)-c1nc3ncccc3cc1CC2 [Compound IA, 5,6,9,10,12,13-Hexahydro[1,10]phenanthrolino[2,3-b]pyrido[2′3′:2,3]quino[7,8-j][1,10]phenanthroline-2-carboxylic acid, potassium salt]

- pKd [3, 6]: > 1.77
SMILES: Nc1ccc2cc3c(nc2n1)-c1nc2c(cc1CC3)CCc1cc3cc4c(nc3nc1-2)-c1nc(C(=O)O)ccc1CC4 [Compound IB, 17-Amino-5,6,9,10,12,13-hexahydro[1,10]phenanthrolino[2,3-b]pyrido[2′3′:2,3]quino[7,8-j][1,10]phenanthroline-2-carboxylic acid, potassium salt]

- pKd ([3]; 98:2 (v/v) DMSO:water, 20 μM receptor, excitation 407 nm, read-out: Kd for urea): 1.30
SMILES: O=C(O)c1ccc2c(n1)-c1nc3nc4c(cc3cc1CC2)CCc1ccc(-c2nc(O)cc(O)n2)nc1-4 [Compound ID, 5,6,9,10-Tetrahydro-13-(4,6-dihydroxypyrimidin-2-yl) [1,10]phenanthrolino [2,3-b][1,10]phenanthroline-2-carboxylic acid, potassium salt]

- pKd ([3]; in DMSO, 30 μM receptor, excitation 384 nm, read-out: Kd for urea): 1.48
- pKd [3, 6]: 1.89
SMILES: Nc1cccc(-c2ccc3c(n2)-c2nc4nc5c(cc4cc2CC3)CCc2ccc(C(=O)O)nc2-5)n1 [Compound IC, 5,6,9,10-Tetrahydro-13-(2-aminopyridin-6-yl)[1,10]phenanthrolino[2,3-b][1,10]phenanthroline-2-carboxylic acid]

SMILES: O=C(O)c1ccc2c(n1)-c1nc3nc4c(cc3cc1CC2)CCc1ccc(C(=O)O)nc1-4 [Compound 3]
- solubility in water / aqueous medium [4]: soluble in water
- pKd [5]: 2.37

SMILES: COc1cc(N(C)C)c(OC)cc1CCNC(=O)c1ccc2c(n1)-c1nc3nc4c(cc3cc1CC2)CCc1ccc(C(=O)NCCNc2ccc3c5c(cccc25)C(=O)N(Cc2ccc(C(=O)OC(C)(C)C)cc2)C3=O)nc1-4 [Compound IE, 5,6,9,10-Tetrahydro[1,10]phenanthrolino[2,3-b][1,10]phenanthroline-2-(N-(4-aminoethyl-N′-(4-tert-butoxycarbonyltoluidyl)naphthyridine))carboxamide-13-(N-(2,5-dimethoxy-4-dimethylaminophenethyl))carboxamide]
- pKd ([3]; 1:1 (v/v) DMSO:CHCl3, 20 μM receptor, excitation 460 nm, read-out: Kd for urea): 1.80

SMILES: CCCCc1c2c(nc3c1CCc1cc4cc5c(nc4nc1-3)-c1nc3c(c(CCCC)c1CC5)CCc1cc4cccnc4nc1-3)-c1nc3ncccc3cc1CC2 [Compound 4]
- solubility in water / aqueous medium [4]: not soluble in water
